Experimental data from PubChem BioAssay AID192 (DTP/NCI, 2004).
Several values for one entry are separate records, joined by “and”; a condition that tells them apart may be missing. Equal values may be shown once. Toxic doses and inconclusive results are not listed.

System: BDF1 mice, B16 melanoma ip, median survival T/C
Experiment: NCI In Vivo Anticancer Drug Screen. Data for tumor model B16 Melanoma (intraperitoneal) in B6D2F1 (BDF1) mice
Settings: endpoint: median survival time, higher = longer survival
Outline: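 The ratio T/C compares compound-treated mice with vehicle-treated controls, using survival or tumor size as the endpoint in a transplantable tumor model.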

[1] = dose: 6.25 mg/kg/injection, schedule: Q01DX009 (ip), vehicle: Klucel (hydroxypropylcellulose) (HPC)
[2] = dose: 12.5 mg/kg/injection, schedule: Q01DX009 (ip), vehicle: Klucel (hydroxypropylcellulose) (HPC)
[3] = dose: 25.0 mg/kg/injection, schedule: Q01DX009 (ip), vehicle: Klucel (hydroxypropylcellulose) (HPC)
[4] = dose: 50.0 mg/kg/injection, schedule: Q01DX009 (ip), vehicle: Klucel (hydroxypropylcellulose) (HPC)
[5] = dose: 100.0 mg/kg/injection, schedule: Q01DX009 (ip), vehicle: Klucel (hydroxypropylcellulose) (HPC)
[6] = dose: 100.0 mg/kg/injection, schedule: Q04DX003 (ip), vehicle: Klucel (hydroxypropylcellulose) (HPC)
[7] = dose: 200.0 mg/kg/injection, schedule: Q01DX009 (ip), vehicle: Klucel (hydroxypropylcellulose) (HPC)
[8] = dose: 200.0 mg/kg/injection, schedule: Q04DX003 (ip), vehicle: Klucel (hydroxypropylcellulose) (HPC)
[9] = dose: 400.0 mg/kg/injection, schedule: Q01DX009 (ip), vehicle: Klucel (hydroxypropylcellulose) (HPC)
[10] = dose: 400.0 mg/kg/injection, schedule: Q04DX003 (ip), vehicle: Klucel (hydroxypropylcellulose) (HPC)
[11] = dose: 50.0 mg/kg/injection, schedule: Q01DX009 (ip), vehicle: saline
[12] = dose: 100.0 mg/kg/injection, schedule: Q01DX009 (ip), vehicle: saline
[13] = dose: 200.0 mg/kg/injection, schedule: Q01DX009 (ip), vehicle: saline

`CCC(c1ccc(OC(=O)Cc2ccc(N(CCCl)CCCl)cc2)cc1)C(CC)c1ccc(OC(=O)Cc2ccc(N(CCCl)CCCl)cc2)cc1` (stereo unspecified) was tested, and the T/C [1] was 106 % of control, the T/C [2] was 110 % of control and the T/C [3] was 96 % of control. The T/C [4] was 88 % of control, the T/C (dose: 64.0 mg/kg/injection, schedule: Q02DX009 (ip), vehicle: saline with Tween-80) was 95 % of control and 98 % of control and the T/C (dose: 128.0 mg/kg/injection, schedule: Q02DX009 (ip), vehicle: saline with Tween-80) was 91 % of control. For the same compound, the T/C (dose: 256.0 mg/kg/injection, schedule: Q02DX009 (ip), vehicle: saline with Tween-80) was 92 % of control.
In the case of `COc1cccc2c1C(=O)c1c(O)c3c(c(O)c1C2=O)C[C@@](O)(/C(C)=N/NC(=O)c1ccc(Cl)cc1)C[C@@H]3OC1CC(N)C(O)C(C)O1` (stereo partly specified), the T/C (dose: 1.0 mg/kg/injection, schedule: Q01DX009 (ip), vehicle: suspension in saline) is reported as 155 % of control, the T/C (dose: 2.0 mg/kg/injection, schedule: Q01DX009 (ip), vehicle: suspension in saline) is reported as 188 % of control and the T/C (dose: 2.5 mg/kg/injection, schedule: Q01DX001 (ip), vehicle: saline with Tween-80) is reported as 155 % of control. The T/C (dose: 2.5 mg/kg/injection, schedule: Q01DX001 (ip), vehicle: water) was 121 % of control, the T/C (dose: 4.0 mg/kg/injection, schedule: Q01DX009 (ip), vehicle: suspension in saline) was 193 % of control and the T/C (dose: 5.0 mg/kg/injection, schedule: Q01DX001 (ip), vehicle: saline with Tween-80) was 204 % of control. The T/C (dose: 5.0 mg/kg/injection, schedule: Q01DX001 (ip), vehicle: water) was 279 % of control, the T/C (dose: 8.0 mg/kg/injection, schedule: Q01DX009 (ip), vehicle: suspension in saline) was 322 % of control and the T/C (dose: 10.0 mg/kg/injection, schedule: Q01DX001 (ip), vehicle: saline with Tween-80) was 196 % of control. The T/C (dose: 10.0 mg/kg/injection, schedule: Q01DX001 (ip), vehicle: water) was 154 % of control and 300 % of control, the T/C (dose: 20.0 mg/kg/injection, schedule: Q01DX001 (ip), vehicle: saline with Tween-80) was 280 % of control and the T/C (dose: 20.0 mg/kg/injection, schedule: Q01DX001 (ip), vehicle: water) was 235 % of control. The T/C (dose: 40.0 mg/kg/injection, schedule: Q01DX001 (ip), vehicle: saline with Tween-80) was 205 % of control.
`Cc1ccc(NC(=S)N(C)C)cc1Cl` was tested, and the T/C [5] was 100 % of control, the T/C [6] was 104 % of control and the T/C [7] was 88 % of control. For the same compound, the T/C [8] was 90 % of control, the T/C [9] was 88 % of control and the T/C [10] was 95 % of control.
With `C[C@@H](CN1CC(=O)NC(=O)C1)N1CC(=O)NC(=O)C1` the T/C (dose: 8.0 mg/kg/injection, schedule: Q01DX009 (ip), vehicle: saline with Tween-80) was 100 % of control, the T/C (dose: 16.0 mg/kg/injection, schedule: Q01DX009 (ip), vehicle: saline with Tween-80) was 117 % of control and the T/C (dose: 16.0 mg/kg/injection, schedule: Q01DX009 (ip), vehicle: water) was 107 % of control and 122 % of control. The T/C (dose: 25.0 mg/kg/injection, schedule: Q04DX003 (ip), vehicle: water) was 101 % of control and 107 % of control, the T/C (dose: 32.0 mg/kg/injection, schedule: Q01DX009 (ip), vehicle: saline with Tween-80) was 112 % of control and the T/C (dose: 32.0 mg/kg/injection, schedule: Q01DX009 (ip), vehicle: water) was 111 % of control. For the same compound, the T/C (dose: 50.0 mg/kg/injection, schedule: Q04DX003 (ip), vehicle: water) was 103 % of control, the T/C (dose: 100.0 mg/kg/injection, schedule: Q04DX003 (ip), vehicle: water) was 104 % of control and 112 % of control and the T/C (dose: 128.0 mg/kg/injection, schedule: Q01DX009 (ip), vehicle: water) was 113 % of control. The T/C (dose: 200.0 mg/kg/injection, schedule: Q04DX003 (ip), vehicle: water) was 103 % of control, the T/C (dose: 256.0 mg/kg/injection, schedule: Q01DX009 (ip), vehicle: water) was 87 % of control and the T/C (dose: 400.0 mg/kg/injection, schedule: Q04DX003 (ip), vehicle: water) was 117 % of control. The T/C (dose: 800.0 mg/kg/injection, schedule: Q04DX003 (ip), vehicle: water) was 88 % of control.
With `COC(=O)C1CC(C)(C)N(C)C1(C)C` (stereo unspecified) the T/C [4] was 93 % of control and the T/C [5] was 94 % of control.
`O=[N+]([O-])c1ccc(C(O)CC(O)(C(F)(F)F)C(F)(F)F)cc1` (stereo unspecified) was tested, and the T/C [6] was 97 % of control, the T/C [8] was 97 % of control and the T/C [10] was 95 % of control.
With `CC(C)(C)NC(=O)CCC(CC(=O)NC(C)(C)C)S(=O)(=O)O` (stereo unspecified) the T/C [11] was 118 % of control, the T/C [12] was 112 % of control and the T/C [13] was 93 % of control.
With `Nc1n[nH]c(N)n1` the T/C [11] was 99 % of control and 100 % of control, the T/C [5] was 100 % of control (2×) and 108 % of control and the T/C (dose: 100.0 mg/kg/injection, schedule: Q01DX009 (ip), vehicle: saline sonified) was 90 % of control. For the same compound, the T/C (dose: 100.0 mg/kg/injection, schedule: Q01DX009 (ip), vehicle: saline with Tween-80) was 95 % of control and 97 % of control and 120 % of control, the T/C [7] was 94 % of control and 102 % of control (2×) and the T/C (dose: 200.0 mg/kg/injection, schedule: Q01DX009 (ip), vehicle: saline sonified) was 97 % of control and 100 % of control. The T/C (dose: 200.0 mg/kg/injection, schedule: Q01DX009 (ip), vehicle: saline with Tween-80) was 100 % of control and 107 % of control, the T/C [9] was 92 % of control and 108 % of control and 110 % of control and the T/C (dose: 400.0 mg/kg/injection, schedule: Q01DX009 (ip), vehicle: saline sonified) was 95 % of control and 97 % of control. The T/C (dose: 800.0 mg/kg/injection, schedule: Q01DX009 (ip), vehicle: Klucel (hydroxypropylcellulose) (HPC)) was 86 % of control and 107 % of control and 111 % of control, the T/C (dose: 800.0 mg/kg/injection, schedule: Q01DX009 (ip), vehicle: saline sonified) was 92 % of control and 100 % of control and the T/C (dose: 1600.0 mg/kg/injection, schedule: Q01DX009 (ip), vehicle: saline with Tween-80) was 93 % of control. The T/C (dose: 3200.0 mg/kg/injection, schedule: Q01DX009 (ip), vehicle: saline with Tween-80) was 97 % of control.
`CCCNC1=C(N2CC2)C(=O)C(NCCC)=C(N2CC2)C1=O` was tested, and the T/C (dose: 1.25 mg/kg/injection, schedule: Q01DX009 (ip), vehicle: saline) was 108 % of control.
`COc1cc2c(c(OC)c1OC)-c1c(cc3c(c1OC)OCO3)CC(C)C(C)(O)C2OC(=O)c1ccccc1` (stereo unspecified) was tested, and the T/C (dose: 11.25 mg/kg/injection, schedule: Q01DX009 (ip), vehicle: saline + Tween-80 + alcohol) was 106 % of control, the T/C (dose: 22.5 mg/kg/injection, schedule: Q01DX009 (ip), vehicle: saline + Tween-80 + alcohol) was 97 % of control and the T/C (dose: 45.0 mg/kg/injection, schedule: Q01DX009 (ip), vehicle: saline + Tween-80 + alcohol) was 97 % of control. For the same compound, the T/C (dose: 90.0 mg/kg/injection, schedule: Q01DX009 (ip), vehicle: saline + Tween-80 + alcohol) was 91 % of control.
`C=C(C)C(=O)OCC1CO1` (stereo unspecified) was tested, and the T/C [4] was 102 % of control, the T/C [5] was 100 % of control and the T/C [7] was 109 % of control.
With `CC[P+](CC)(CC)CCCCI` the T/C [11] was 93 % of control.
In the case of `Nc1n[n+](-c2ccccc2)no1`, the T/C (dose: 1.56 mg/kg/injection, schedule: Q01DX009 (ip), vehicle: water) is reported as 102 % of control, the T/C (dose: 3.12 mg/kg/injection, schedule: Q01DX009 (ip), vehicle: water) is reported as 89 % of control and the T/C (dose: 3.13 mg/kg/injection, schedule: Q01DX009 (ip), vehicle: water) is reported as 96 % of control. For the same compound, the T/C (dose: 6.25 mg/kg/injection, schedule: Q01DX009 (ip), vehicle: water) was 102 % of control and 105 % of control and the T/C (dose: 12.5 mg/kg/injection, schedule: Q01DX009 (ip), vehicle: water) was 119 % of control.
With `O=[N+]([O-])c1cc([N+](=O)[O-])cc(S(=O)(=O)O)c1` the T/C (dose: 25.0 mg/kg/injection, schedule: Q04DX003 (ip), vehicle: saline) was 108 % of control, the T/C (dose: 50.0 mg/kg/injection, schedule: Q04DX003 (ip), vehicle: saline) was 97 % of control and the T/C (dose: 100.0 mg/kg/injection, schedule: Q04DX003 (ip), vehicle: saline) was 87 % of control.
`CNC(c1ccncc1)C(NC)c1ccncc1` (stereo unspecified) was tested, and the T/C [6] was 95 % of control and the T/C [10] was 91 % of control.
With `COc1cc2cc[n+](C)c(Cc3ccccc3)c2cc1OC` the T/C (dose: 3.12 mg/kg/injection, schedule: Q01DX009 (ip), vehicle: Klucel (hydroxypropylcellulose) (HPC)) was 102 % of control, the T/C [1] was 102 % of control and the T/C [2] was 102 % of control. The T/C [3] was 104 % of control.
`CC[N+]1(CC)CC[N+]2(CC1)CC[N+]1(CC[N+](CC)(CC)CC1)CC2` was tested, and the T/C [11] was 94 % of control, the T/C [12] was 100 % of control and the T/C [13] was 94 % of control.
